Measurements taken from patent publication US8067424B2, “Selective inhibitors for cyclin-dependent kinases” (Emory University, priority 2007, dated 2011).
Like-named read-outs stand apart in the source and are kept apart here.

Assays:
[1] = biological target: NEK7 (Homo sapiens, UniProt Q8TDX7); assay: Kinase screen: NEK7 assay; format: biochemical; details: read-out: Mean Remaining Enzyme Activity (%)
Procedure: Generally, the same procedure was used for all assays. Since the total assay volume was 25.5 microliters, 0.5 microliters of inhibitors at 51× assay concentration were added to the plates before any other addition.
The basic procedure was to add 0.5 microliters inhibitor/control in DMSO to plate. Fifteen microliters of enzyme/substrate/buffer mix were added and incubated for 5 min. Ten microliters MgATP at the relevant concentration were added and incubated for 30 min. The assay was stopped by adding 5 microliters of 3% orthophosphoric acid. The assay was transferred to a p81 filter plate and read in a scintillation counter of 30 sec/well. Note that this assay procedure was not followed for MKK1, which instead involved a two-step assay, and PKC alpha, which required the addition of lipid vesicles.
(500-1000 cpm/pmole) and incubated for 30 min at room temperature. Assays were stopped by addition of 5 μl of 0.5 M (3%) orthophosphoric acid and then harvested onto P81 Unifilter plates with a wash buffer of 50 mM orthophosphoric acid.

[2] = test system: CCRF-CEM; details: for Mean Optical Densities / Percent Growth: CCRF-CEM
[3] = test system: SR; details: for Mean Optical Densities / Percent Growth: SR
[4] = test system: COLO 205
[5] = test system: SNB-19
[6] = test system: SK-MEL-28
[7] = test system: UACC-62
[8] = test system: OVCAR-4
[9] = test system: OVCAR-5
[10] = test system: RXF 393
[11] = test system: NCI-H460; assay: cells; details: Homo sapiens
[12] = test system: SNB-75; assay: cells; details: Homo sapiens
[13] = test system: LOX IMVI; assay: cells; details: Homo sapiens
[14] = test system: A498; assay: cells; details: Homo sapiens
[15] = test system: ACHN; assay: cells; details: Homo sapiens
[16] = test system: NCI/ADR-RES; assay: cells; details: Homo sapiens
[17] = COLO 205, log10 concentration −4.0
[18] = COLO 205, log10 concentration −5.0
[19] = COLO 205, log10 concentration −6.0
[20] = COLO 205, log10 concentration −7.0
[21] = COLO 205, log10 concentration −8.0
[22] = SNB-19, log10 concentration −4.0
[23] = SNB-19, log10 concentration −5.0
[24] = SNB-19, log10 concentration −6.0
[25] = SNB-19, log10 concentration −7.0
[26] = SNB-19, log10 concentration −8.0
[27] = SK-MEL-28, log10 concentration −4.0
[28] = SK-MEL-28, log10 concentration −5.0
[29] = SK-MEL-28, log10 concentration −6.0
[30] = SK-MEL-28, log10 concentration −7.0
[31] = SK-MEL-28, log10 concentration −8.0
[32] = UACC-62, log10 concentration −4.0
[33] = UACC-62, log10 concentration −5.0
[34] = UACC-62, log10 concentration −6.0
[35] = UACC-62, log10 concentration −7.0
[36] = UACC-62, log10 concentration −8.0
[37] = OVCAR-4, log10 concentration −4.0
[38] = OVCAR-4, log10 concentration −5.0
[39] = OVCAR-4, log10 concentration −6.0
[40] = OVCAR-4, log10 concentration −7.0
[41] = OVCAR-4, log10 concentration −8.0
[42] = OVCAR-5, log10 concentration −4.0
[43] = OVCAR-5, log10 concentration −5.0
[44] = OVCAR-5, log10 concentration −6.0
[45] = OVCAR-5, log10 concentration −7.0
[46] = OVCAR-5, log10 concentration −8.0
[47] = RXF 393, log10 concentration −4.0
[48] = RXF 393, log10 concentration −5.0
[49] = RXF 393, log10 concentration −6.0
[50] = RXF 393, log10 concentration −7.0
[51] = RXF 393, log10 concentration −8.0

NEK7, sequence (Q8TDX7 whole entry, species assumed): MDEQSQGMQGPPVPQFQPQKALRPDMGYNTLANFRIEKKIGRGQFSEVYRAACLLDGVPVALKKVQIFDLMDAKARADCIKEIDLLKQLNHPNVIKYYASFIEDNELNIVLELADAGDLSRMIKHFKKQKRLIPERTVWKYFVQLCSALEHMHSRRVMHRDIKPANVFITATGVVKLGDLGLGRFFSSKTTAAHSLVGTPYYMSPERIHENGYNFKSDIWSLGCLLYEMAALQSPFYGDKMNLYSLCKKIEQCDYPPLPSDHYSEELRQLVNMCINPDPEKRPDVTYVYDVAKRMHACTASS

SMILES: CC(C)c1cnn2c(NCc3ccccc3)cc(NCCCCCCCN)nc12 [BS-181]
- remaining activity at 10 µM [1]: 97%

SMILES: CC(C)c1cnn2c(NCc3ccccc3)cc(N[C@@H](CO)[C@H](O)CO)nc12 [ICEC0318, (3S)-3-(7-(Benzylamino)-3-isopropylpyrazolo[1,5-a]pyrimidin-5-ylamino)butane-1,2,4-triol]
- TGI ([2]; CCRF-CEM (Leukemia)): >1.00E−4
- Mean Optical Densities ([2]; log10 concentration −4.0): 0.227
- Percent Growth ([2]; log10 concentration −4.0): 11%
- Mean Optical Densities ([2]; log10 concentration −5.0): 0.330
- Percent Growth ([2]; log10 concentration −5.0): 33%
- Mean Optical Densities ([2]; log10 concentration −6.0): 0.279
- Percent Growth ([2]; log10 concentration −6.0): 22%
- Mean Optical Densities ([2]; log10 concentration −7.0): 0.565
- Percent Growth ([2]; log10 concentration −7.0): 82%
- Mean Optical Densities ([2]; log10 concentration −8.0): 0.769
- Percent Growth ([2]; log10 concentration −8.0): 125%
- TGI ([3]; SR (Leukemia)): >1.00E−4
- Mean Optical Densities ([3]; log10 concentration −4.0): 0.239
- Percent Growth ([3]; log10 concentration −4.0): 7%
- Mean Optical Densities ([3]; log10 concentration −5.0): 0.244
- Percent Growth ([3]; log10 concentration −5.0): 8%
- Mean Optical Densities ([3]; log10 concentration −6.0): 0.275
- Percent Growth ([3]; log10 concentration −6.0): 16%
- Mean Optical Densities ([3]; log10 concentration −7.0): 0.394
- Percent Growth ([3]; log10 concentration −7.0): 45%
- Mean Optical Densities ([3]; log10 concentration −8.0): 0.548
- Percent Growth ([3]; log10 concentration −8.0): 83%
- TGI ([4]; COLO 205 (Colon Cancer)): 3.82E−7
- Mean Optical Densities [4, 17]: 0.030
- Percent Growth [4, 17]: −77%
- Mean Optical Densities [4, 18]: 0.050
- Percent Growth [4, 18]: −62%
- Mean Optical Densities [4, 19]: 0.065
- Percent Growth [4, 19]: −50%
- Mean Optical Densities [4, 20]: 0.372
- Percent Growth [4, 20]: 70%
- Mean Optical Densities [4, 21]: 0.499
- Percent Growth [4, 21]: 107%
- TGI ([5]; SNB-19 (CNS Cancer)): 4.89E−5
- Mean Optical Densities [5, 22]: 0.492
- Percent Growth [5, 22]: −2%
- Mean Optical Densities [5, 23]: 0.537
- Percent Growth [5, 23]: 4%
- Mean Optical Densities [5, 24]: 0.580
- Percent Growth [5, 24]: 9%
- Mean Optical Densities [5, 25]: 1.247
- Percent Growth [5, 25]: 84%
- Mean Optical Densities [5, 26]: 1.309
- Percent Growth [5, 26]: 91%
- TGI ([6]; SK-MEL-28 (Melanoma)): 8.70E−7
- Mean Optical Densities [6, 27]: 0.114
- Percent Growth [6, 27]: −62%
- Mean Optical Densities [6, 28]: 0.198
- Percent Growth [6, 28]: −34%
- Mean Optical Densities [6, 29]: 0.284
- Percent Growth [6, 29]: −6%
- Mean Optical Densities [6, 30]: 0.733
- Percent Growth [6, 30]: 85%
- Mean Optical Densities [6, 31]: 0.816
- Percent Growth [6, 31]: 102%
- TGI ([7]; UACC-62 (Melanoma)): 3.16E−7
- Mean Optical Densities [7, 32]: 0.078
- Percent Growth [7, 32]: −90%
- Mean Optical Densities [7, 33]: 0.165
- Percent Growth [7, 33]: −78%
- Mean Optical Densities [7, 34]: 0.142
- Percent Growth [7, 34]: −81%
- Mean Optical Densities [7, 35]: 1.821
- Percent Growth [7, 35]: 81%
- Mean Optical Densities [7, 36]: 2.110
- Percent Growth [7, 36]: 102%
- TGI ([8]; OVCAR-4 (Ovarian Cancer)): 1.45E−5
- Mean Optical Densities [8, 37]: 0.269
- Percent Growth [8, 37]: −25%
- Mean Optical Densities [8, 38]: 0.399
- Percent Growth [8, 38]: 5%
- Mean Optical Densities [8, 39]: 0.445
- Percent Growth [8, 39]: 10%
- Mean Optical Densities [8, 40]: 1.138
- Percent Growth [8, 40]: 95%
- Mean Optical Densities [8, 41]: 1.246
- Percent Growth [8, 41]: 109%
- TGI ([9]; OVCAR-5 (Ovarian Cancer)): >1.00E−4
- Mean Optical Densities [9, 42]: 0.618
- Percent Growth [9, 42]: 10%
- Mean Optical Densities [9, 43]: 0.688
- Percent Growth [9, 43]: 19%
- Mean Optical Densities [9, 44]: 0.665
- Percent Growth [9, 44]: 16%
- Mean Optical Densities [9, 45]: 1.165
- Percent Growth [9, 45]: 82%
- Mean Optical Densities [9, 46]: 1.211
- Percent Growth [9, 46]: 88%
- TGI ([10]; RXF 393 (Renal Cancer)): 5.27E−7
- Mean Optical Densities [10, 47]: 0.239
- Percent Growth [10, 47]: −54%
- Mean Optical Densities [10, 48]: 0.308
- Percent Growth [10, 48]: −40%
- Mean Optical Densities [10, 49]: 0.333
- Percent Growth [10, 49]: −35%
- Mean Optical Densities [10, 50]: 0.928
- Percent Growth [10, 50]: 92%
- Mean Optical Densities [10, 51]: 0.980
- Percent Growth [10, 51]: 103%
- GI50 ([11]; NCI-H460): 258 nM
- CC50 ([11]; NCI-H460, read-out: LC50): > 100000 nM
- GI50 ([12]; SNB-75): 222 nM
- CC50 ([12]; SNB-75, read-out: LC50): 1600 nM
- GI50 [13]: 171 nM
- CC50 ([13]; read-out: LC50): > 100000 nM
- GI50 ([14]; A498): 235 nM
- CC50 ([14]; A498, read-out: LC50): 993 nM
- GI50 [15]: 233 nM
- CC50 ([15]; read-out: LC50): > 100000 nM
- GI50 [16]: 2040 nM
- CC50 ([16]; read-out: LC50): > 100000 nM
